From publication PMC8509773, “3-Pyridinylidene Derivatives of Chemically Modified Lupane and Ursane Triterpenes as Promising Anticancer Agents by Targeting Apoptosis” (International Journal of Molecular Sciences, 2021) come the findings set out here.

Experiment [1] relates to Bad gene. The experiment in a line: rtPCR gene expression in Sk-Mel-28 cells. It counts as cell-based, human.
Experiment [2] deals with Bcl-XL gene. The experiment can be described thus: rtPCR gene expression in RPMI cells. It counts as cell-based, human. The source says: (§1) We applied rtPCR techniques in order to investigate the effect of our two compounds on the anti-apoptotic Bcl-XL and Bcl-2 genes as well as the proapoptotic Bak and Bad genes (Table 4). […] Therefore, we may presume that the apoptotic mechanism of both compounds against the A375 cells is not mediated by the tested genes or that alterations in their ratio are the underlying mechanism.

The test system of experiment [3] is Bak gene. The experiment in a line: rtPCR gene expression in RPMI cells. It counts as cell-based, human.
Text: as §1

For experiment [4], the system named is RPMI melanoma cells. The experiment in a line: Cell morphology assessment. Particulars: 5 μM, 24 h. It is filed as cell-based, human. The procedure:
In order to further investigate the biological effects of these compounds against three human melanoma cell lines, their effect on cell morphology was assessed.
In terms of the RPMI melanoma cell line (Figure 10), a decrease in the number of cells can be observed in direct proportion to the tested concentration; for both compounds, a proapoptotic change occurred in the cellular morphology.

Experiment [5] deals with Bcl-2 gene. The experiment can be described thus: rtPCR gene expression in A375 cells. It counts as cell-based, human.
Text: as §1

In experiment [6] the test system is Bad gene. The experiment can be described thus: rtPCR gene expression in A375 cells. It counts as cell-based, human.
Text: as §1

In experiment [7] the test system is Bcl-XL gene. The experiment in a line: rtPCR gene expression in A375 cells. It is filed as cell-based, human.
Text: as §1

Experiment [8] relates to Bak gene. The experiment in a line: rtPCR gene expression in A375 cells. It counts as cell-based, human.
Text: as §1

Experiment [9] deals with HaCaT—human keratinocytes. The experiment in a line: MTT cytotoxicity assay for healthy human cells. It is filed as cell-based. Particulars: 48 h. The procedure: (§2) The in vitro cytotoxicity was determined by means of (4,5-dimethylthiazol-2-yl)-2,5-diphenyltetrazolium bromide (MTT) method. In brief, HaCaT, 1BR3 cells were seeded in 96-well plates at an initial density of […] and allowed to attach. Next, the old medium was removed and a fresh one was added containing five concentrations (100 µM, 10 µM, 1 µM, 0.1 µM, and 0.01 µM) of the tested compounds 6 and 7 after which cells were incubated for 48 h. The control cells were treated with the same amount of DMSO, the highest concentration of DMSO present in the medium being 0.5%. A volume of […] MTT reagent (5 mg/mL) was added in each well. During a 4 h contact period, the intact mitochondrial reductase converted and precipitated MTT as blue crystals. The precipitated crystals were dissolved in […] of lysis solution provided by the manufacturer (Sigma-Aldrich). Finally, the reduced MTT was spectrophotometrically analyzed at 570 nm, using a microplate reader (xMark Microplate Spectrophotometer, Bio-Rad, Hercules, CA, USA). GI50 was calculated for each healthy cell line.
(Formazan colour is commonly taken as a measure of viable cells.)

In experiment [10] the test system is 1BR3 human fibroblasts. The experiment can be described thus: MTT cytotoxicity assay for healthy human cells. It counts as cell-based. Particulars: 1BR3 healthy cells, 48 h. The procedure:
as §2

In experiment [11] the test system is Bcl-2 gene. The experiment can be described thus: rtPCR gene expression in RPMI cells. It is filed as cell-based, human.
Experiment [12] relates to Bcl-XL gene. The experiment can be described thus: rtPCR gene expression in Sk-Mel-28 cells. It counts as cell-based, human.
Text: as §1

Experiment [13] has as its system Bak gene. The experiment in a line: rtPCR gene expression in Sk-Mel-28 cells. It counts as cell-based, human.
Text: as §1

Marks after values point to notes of the source that are not given here. Where only a bound is given, the exact number is not on record here.

For orientation: GI50 means the concentration at which growth is held to half of that of the control. Regarding `C[C@H]1[C@@H]2[C@H]3CC[C@@H]4[C@@]5(C)C/C(=C\c6cccnc6)C(=O)C(C)(C)[C@@H]5CC[C@@]4(C)[C@]3(C)CC[C@]23CO[C@@]1(C)[C@@H](C(=O)/C=C/c1cccnc1)C3` [Compound 6, 3-Oxo-2-(3-pyridinylidene)-21-[3-(2E-pyridinyl)-prop-2-en-1-one]-20β,28-epoxy-18α,19βH-ursane], the “Bad gene expression, Mean” value is on record as 15.716 ** in experiment [1], “downregulated” in experiment [6] and 0.150 * in [6] (listed as compound 6). Besides, the “Bcl-XL gene expression, Mean” value in experiment [2] was 0.100 **; in experiment [7], 0.286 *; in [12], 1.606. Also, the “Bak gene expression, Mean” value in experiment [3] is listed as 0.066 ***; in experiment [8], “downregulated”; in [8] (listed as compound 6) it was 0.546 ***; in experiment [13], 22.826 ***. In [4], the “Effect on cell morphology” value is “formation of vacuoles within the cell cytoplasm”. Further, the “Bcl-2 gene expression, Mean” value in experiment [5] was 2.570; in [11] it was 0.246 **. In addition, the GI50 was 18.6 µM in [9]; more than 15 µM in [9] (Homo sapiens, HaCaT); 23.1 µM in [10]; more than 15 µM in [10] (Homo sapiens, Fibroblast).
In the case of `COC(=O)[C@]12CC[C@@H](C(=O)/C=C/c3cccnc3)[C@@H]1[C@H]1CC[C@@H]3[C@@]4(C)C/C(=C\c5cccnc5)C(=O)C(C)(C)[C@@H]4CC[C@@]3(C)[C@]1(C)CC2` [Compound 7, methyl 2,30-bis-(3-pyridinylidene)-3,20-dioxo-lup-28-oate], the figures for the “Bad gene expression, Mean” value in experiment [1], in experiment [6] and in experiment [6] (listed as compound 7) were 65.946 ***, “upregulation” and 155.433 *, respectively. The “Bcl-XL gene expression, Mean” value in experiment [2] is on record as 1.360 *; in experiment [7] it was “upregulation”; in experiment [7] (listed as compound 7), 28.893 **; in experiment [12], 3.826. For the same molecule, the “Bak gene expression, Mean” value in experiment [3] is recorded as 0.990 **; in experiment [8], “upregulation”; in experiment [8] (listed as compound 7), 17.743 ***; in experiment [13], 59.543 **. Also, the “Bcl-2 gene expression, Mean” value in experiment [5] is given as “upregulation”; in experiment [5] (listed as compound 7), 81.120 ***; in [11], 0.313. Moreover, the GI50 in [9] was 15.4 µM; in experiment [9] (Homo sapiens, HaCaT) it was more than 15 µM; in [10], 20.9 µM; in experiment [10] (Homo sapiens, Fibroblast), more than 15 µM.
